Results on two sequences are retold here after patent US7927811B2, “Polypeptides having brain-localizing activity and uses thereof” (Proteus Sciences Co., Ltd., priority 2003, dated 2011).

The assay has as its system mouse brain tissues (cerebral parenchyma). The assay can be described thus: Brain-localizing peptide conjugates bound to gold colloids administered to mice; transmission electron microscopy of brain tissue sections. The assay is classed as in vivo. Particulars: biotin-conjugated peptide + avidin-gold particles administered to mice; electron micrographs, hippocampal pyramidal cells and cerebellar Purkinje cell region. The text has this: The present inventors produced brain-localizing peptide conjugates. The conjugates are molecules that can have a cyclic structure due to the formation of a disulfide bond between cysteine residues in a peptide molecule of the present invention, and may also have biotin attached to them. The conjugates have affinity to avidin compounds.
The conjugates were bound to gold colloids and administered to mice, and the mice were subjected to experiments that evaluate the brain-localizing activity of the peptides of the present invention (observation of brain tissue sections under a transmission electron microscope).
[Section Preparation] • (i) trimming • (ii) preparation of thick sections (2 to 3 μm thick) using a glass knife • (iii) preparation of ultra-thin sections (50 to 100 nm thick) using a diamond knife • (iv) electron staining: 2% uranium acetate and then 1% lead citrate (3 minutes each) • (v) transmission electron microscope observation (acceleration voltage of 80 kV)
In the present experiment, T2J002 (SEQ ID NO: 2) and T2J004 (SEQ ID NO: 4) were used as peptides of the present invention. The arrows show positions of the gold particle-bound peptide molecules of the present invention. […] More specifically, the peptides of the present invention were confirmed to have brain-localizing activity.

Turning to CSLNTRSQC [T2J002], the “transport of gold colloids into the cerebral parenchyma (brain-localizing activity)” value is listed as “successfully transport the gold colloids into the cerebral parenchyma”.
As for CVVRHLQQC [T2J004], the “transport of gold colloids into the cerebral parenchyma (brain-localizing activity)” value was “successfully transport the gold colloids into the cerebral parenchyma”.
